From patent publication US6372208B1, “Method of reducing an immune response to a recombinant virus” (The Trustees of the University of Pennsylvania, priority 1996, dated 2002)
Read-outs that look alike come from different tables or passages of the source.

What was measured:
[1] = test system: human Ad5 recombinant vector; test: Neutralizing antibody to adenovirus in BAL (Hela cell lacZ transduction); assay type: in vivo, C57BL/6 mice; conditions: day 28, versus control mice
Procedure: BAL samples obtained from animals 28 days after primary exposure to recombinant virus were evaluated for neutralizing antibodies to adenovirus and anti-adenovirus antibody isotypes as follows. The same four groups of C57BL/6 mice, i.e., control, CD4^+ depleted, IL-12 treated and IFN-γ treated, were infected with H5.010BALP. Neutralizing antibody was measured in serially-diluted BAL samples (100 μl) which were mixed with H5.010CBlacZ (1×10^6 pfu in 20 μl), incubated for 1 hour at 37° C., and applied to 80% confluent Hela cells in 96 well plates (2×10^4 cells per well). After 60 minutes of incubation at 37° C., 100 μl of DMEM containing 20% FBS was added to each well. Cells were fixed and stained for β-galactosidase expression the following day.
(§1) The results are shown graphically in FIGS. 1A through 1C, which summarize neutralizing antibody titer, and the relative amounts (OD405) of IgG and IgA present in BAL samples.

[2] = test system: recombinant adenoviruses H5.010CBALP and H5.010CMVlacZ; test: Lung-directed adenovirus gene transfer and readministration, transgene expression by histochemistry (Example 2); assay type: in vivo, C57BL/6 mice; conditions: lung, readministered day 28, read day 31
Procedure: Female C57BL/6 mice (6˜8 week old) were infected with suspensions of H5.010CBALP (1×10^9 pfu in 50 μl of PBS) via the trachea at day 0 and similarly with H5.010CMVlacZ at day 28. One group of such mice was used as a control. Another group of mice were acutely depleted of CD4^+ cells by i.p. injection of antibody to CD4^+ cells (GK1.5; ATCC No. TIB207, 1:10 dilution of ascites) at the time of the initial gene therapy (days −3, 0, and +3). A third group of mice was injected with IL-12 (1 μg intratracheal or 2 μg, i.p. injections) at the time of the first administration of virus (days 0 and +1). A fourth group of mice was injected with gamma interferon. (1 μg intratracheal or 2 μg, i.p. injections) at the time of the first administration of virus (days 0 and +1).
When mice were subsequently euthanized and necropsied at days 3, 28, or 31, lung tissues were prepared for cryosections, while bronchial alveolar lavage (BAL) and mediastinal lymph nodes (MLN) were harvested for immunological assays.
The lung tissues were evaluated for ALP expression at day 3 and day 28 by histochemical staining following the procedures of Yang I, cited above. β-galactosidase expression was assayed at day 31 by X-gal histochemical staining. The results described below were obtained from the alkaline phosphatase histochemical stains (magnification ×100) or β-galactosidase X-gal stains (magnification ×100).

[3] = test system: recombinant adenoviruses H5.010CBALP and H5.010CMVlacZ; test: Liver-directed adenovirus gene transfer and readministration (Example 3); assay type: in vivo, C57BL/6 mice; conditions: liver, readministered day 28, read day 31
Procedure: Experiments substantially identical to those described in Example 2 above were conducted in which viral vectors were administered into the blood for introduction of the transgene into the liver (rather than intratracheal delivery into the lung).
Female C57BL/6 mice (6-8 weeks old) were injected with suspensions of H5.010CBALP (1×10^9 pfu in 50 μl of PBS) i.p. at day 0 and similarly with H5.010CMVlacZ at day 28. One group of such mice was used as a control. Another group of mice was acutely depleted of CD4^+ cells by i.p. injection of antibody to CD4^+ cells (GK1.5; ATCC No. TIB207, 1:10 dilution of ascites) at the time of the initial gene therapy (days −3, 0, and +3). A third group of mice was injected with IL-12 (2 μg, i.p. injections) at the time of the first administration of virus (days 0 and +1). A fourth group of mice was injected with gamma interferon (2 μg, i.p. injections) at the time of the first administration of virus (days 0 and +1) .
When mice were subsequently euthanized and necropsied at days 3, 28, or 31, liver tissues were prepared for cryosections according to the procedures used above for lung tissue in Example 2.
The cryosection results were substantially similar for liver-directed gene therapy according to this method as for the lung-directed therapy of Example 2 above. The results described below were obtained from the alkaline phosphatase histochemical stains (magnification ×100) or β-galactosidase X-gal stains (magnification ×100).

H5.010CBlacZ = test: Adenovirus-specific IgG and IgA in BAL by ELISA; assay type: in vivo, C57BL/6 mice; conditions: day 28, versus control mice
Procedure: Adenovirus-specific antibody isotype was determined in BAL by using an enzyme-linked immunosorbent assay (ELISA). Briefly, 96-well plates were coated with 100 μl of PBS containing 5×10^9 particles of H5.010CBlacZ for 18 hours at 4° C. The wells were washed 5 times with PBS. After blocking with 200 μl of 2% BSA in PBS, the plates were rinsed once with PBS and incubated with 1:10 diluted BAL samples for 90 minutes at 4° C. Thereafter, the wells were extensively washed and refilled with 100 μl of 1:1000 diluted ALP-conjugated anti-mouse IgG or IgA (Sigma). The plates were incubated, subsequently washed 5 times, and 100 μl of the substrate solution (p-nitrophenyl phosphate, PNPP) was added to each well. Substrate conversion was stopped by the addition of 50 μl of 0.1M EDTA, and reactions were read at 405 nm.
as §1

[4] = test system: E1-deleted adenovirus (H5.010CMVlacZ, H5.010CBALP)

Molecule	neutralizing antibody in BAL [1]	gene transfer upon second administration of virus (lacZ) [2]	gene transfer upon second administration of virus (lacZ) [3]	virus specific IgA in BAL (H5.010CBlacZ)	transgene expression ([4]; liver)	formation of neutralizing antibody ([4]; liver, at higher doses)	vector readministration ([4]; liver, at higher doses)	CD4 and CD8 T helper cell activation to adenovirus capsid protein ([4]; liver, short course at the time of virus delivery)	formation of neutralizing antibodies ([4]; lung)	transgene expression ([4]; lung)
gamma interferon [IFN-γ]	decreased as compared to the control animals not treated with cytokine, but not to the extent obtained with those treated with IL-12	efficient gene transfer was accomplished upon a second administration of virus	efficient gene transfer was accomplished upon a second administration of virus	decreased as compared to the control animals not treated with cytokine, but not to the extent obtained with those treated with IL-12	–	–	–	–	–	–
O=P1(N(CCCl)CCCl)NCCCO1 (stereo not shown) [cyclophosphamide]	–	–	–	–	transgene expression was prolonged	formation of neutralizing antibody was prevented	allowing successful vector readministration	successfully interrupt both CD4 and CD8 T helper cell activation	prevented formation of neutralizing antibodies at all doses	stabilized transgene expression at high dose
